From patent US8058228B2, “Leptin peptide antagonists” (Boston Biomedical Research Institute, priority 2004, dated 2011)

Target: T1, OB-R (Homo sapiens, UniProt P48357)
T1 construct: After confirming via Western that the primary EEC and ESC and endometrial cell lines utilized herein had OB-R; endogenous in cells; host or cells: primary human EEC and ESC; Ishikawa (ECACC 9832301) and HES cell lines
T1 sequence (P48357 22-1165): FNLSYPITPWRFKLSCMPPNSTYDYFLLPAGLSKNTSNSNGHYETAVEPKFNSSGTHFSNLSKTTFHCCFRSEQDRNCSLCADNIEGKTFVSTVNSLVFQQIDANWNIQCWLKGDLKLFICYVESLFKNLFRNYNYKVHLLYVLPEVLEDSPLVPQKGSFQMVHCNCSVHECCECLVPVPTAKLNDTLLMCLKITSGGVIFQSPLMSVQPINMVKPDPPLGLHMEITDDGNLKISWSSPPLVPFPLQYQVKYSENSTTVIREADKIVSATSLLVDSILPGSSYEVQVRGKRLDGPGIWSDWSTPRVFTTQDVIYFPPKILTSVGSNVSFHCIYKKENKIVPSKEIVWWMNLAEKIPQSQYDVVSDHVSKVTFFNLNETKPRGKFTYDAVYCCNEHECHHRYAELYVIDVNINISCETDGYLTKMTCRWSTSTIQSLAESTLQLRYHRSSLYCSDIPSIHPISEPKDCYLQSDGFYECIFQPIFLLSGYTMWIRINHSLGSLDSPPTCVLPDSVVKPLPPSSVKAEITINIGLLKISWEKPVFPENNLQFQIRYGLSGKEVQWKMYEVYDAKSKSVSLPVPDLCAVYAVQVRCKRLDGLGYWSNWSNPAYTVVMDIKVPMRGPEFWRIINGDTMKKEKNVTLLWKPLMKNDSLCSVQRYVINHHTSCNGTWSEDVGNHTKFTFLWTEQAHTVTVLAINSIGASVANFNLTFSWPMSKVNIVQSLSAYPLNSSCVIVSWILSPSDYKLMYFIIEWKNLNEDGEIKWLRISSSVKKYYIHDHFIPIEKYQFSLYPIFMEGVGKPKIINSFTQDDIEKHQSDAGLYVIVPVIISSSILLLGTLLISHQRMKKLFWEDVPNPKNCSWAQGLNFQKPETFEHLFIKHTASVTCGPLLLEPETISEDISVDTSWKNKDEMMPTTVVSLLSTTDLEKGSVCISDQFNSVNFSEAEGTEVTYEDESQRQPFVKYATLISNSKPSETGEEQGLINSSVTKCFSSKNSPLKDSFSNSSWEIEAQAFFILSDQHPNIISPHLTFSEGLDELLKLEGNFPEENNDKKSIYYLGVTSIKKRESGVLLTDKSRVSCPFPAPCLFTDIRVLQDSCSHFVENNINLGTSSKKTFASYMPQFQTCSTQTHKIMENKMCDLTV
Assay: IL-1R tl levels in human endometrial epithelial cells (Western blot)
Assay type: cell-based
Details: EEC cultures
Experimental: Primary human endometrial cells (ESC and EEC) were cultured for 5-9 days in DMEM-F12 medium containing 5% fetal bovine serum (FBS), 5 μg/ml insulin, 1% amphopthericin B, 100 μg/ml streptomycin and 100 U/ml penicillin until they were 80% confluent. Two types of endometrial epithelial cell lines, HES (originally derived from a benign proliferative endometrium) and Ishikawa (human endometrial epithelial adenocarcinoma, ECACC 9832301, Wiltshire, England) were cultured under the same conditions described above. The cells were washed twice with 100 mM phosphate saline buffer (PBS), pH 7.2 and cultured for additional 2 days in the same medium but without FBS (basal medium). Cells were washed as described before and cultured in basal medium containing leptin (0, 3, 10 or 62 nM) or IL-1β (0.6, 3 and 10 nM). […]
Endometrial cells were washed with ice-cold PBS and lysed by homogenization on ice with lysis buffer A [[…] Tris, pH 7.4, containing 137 nM NaCl, 2 mM EDTA, 10% glycerol, 50 mM β-glycerophosphate, 1% Nonidet P-40 and a mixture of proteases and phosphatase inhibitors composed of 100 μM antipain, 0.1 mg/ml trypsin inhibitor, protease inhibitor cocktail 1:50 (Sigma), 50 nM NaF, 2 mM phenyl-methylsulfonyl fluoride, and 2 mM sodium orthovanadate]. […] Protein concentrations were determined using the Bradford protein assay (BioRad Laboratories Inc., Hercules, Calif.). […]

effect on leptin-induced IL-1R tl levels | IL-1R tl levels after leptin | Substance
inhibited the leptin-induced effects |  | SRNVIQISNDLENLRDLLHVLAFSKS [LPA-2, 26 amino acid peptide, residues 70-95 of helix III of the human leptin molecule; leptin peptide antagonist]
 | increase the levels of IL-1R tl | leptin: human recombinant leptin (R&D Systems), OB-R ligand used as stimulus
